From US9113629B2, “4-amino-6-(4-substituted-phenyl)-picolinates and 6-amino-2-(4-substituted-phenyl)-pyrimidine-4-carboxylates and their use as herbicides” (DOW AGROSCIENCES LLC, priority 2013, dated 2015)
Like-named read-outs stand apart in the source and are kept apart here.

Columns and labels:
[1] = tested on: Key Broadleaf Weed and Crop Species; assay: Post-emergent Test II herbicidal activity (Table 5); format: in vivo; details: post-emergence, 336 h, post-emergent, 14 days after application; for pest or weed control at 70 g/ha: 70 g ai/ha; for pest or weed control at 140 g/ha: 140 g ai/ha
In short: (§1)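 Injury was rated visually 14 d after treatment on a 0–100% scale against untreated controls. Test compounds, formulated with crop oil concentrate and surfactant and serially diluted down to 1/16× of the top rate, were applied by track sprayer at 187 L/ha onto first- to second-true-leaf seedlings.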

[2] = tested on: Key Grass and Sedge Weeds as well as Grass Crops; assay: Post-emergent Test II herbicidal activity (Table 6); format: in vivo; details: post-emergence, 336 h; for pest or weed control at 70 g/ha: application rate 70 g ai/ha; for pest or weed control at 140 g/ha: application rate 140 g ai/ha
In short: as §1

[3] = ABUTH: velvetleaf (Abutilon theophrasti), read-out: Visual Growth Reduction (%) 14 Days After Application ABUTH
[4] = AMARE: redroot pigweed (Amaranthus retroflexus), read-out: Visual Growth Reduction (%) 14 Days After Application AMARE
[5] = BRSNN: oilseed-rape, canola (Brassica napus), read-out: Visual Growth Reduction (%) 14 Days After Application BRSNN
[6] = CHEAL: lambsquarters (Chenopodium album), read-out: Visual Growth Reduction (%) 14 Days After Application CHEAL
[7] = EPHHL: wild poinsettia (Euphorbia heterophylla), read-out: Visual Growth Reduction (%) 14 Days After Application EPHHL
[8] = HELAN: sunflower (Helianthus annuus), read-out: Visual Growth Reduction (%) 14 Days After Application HELAN
[9] = VIOTR: wild pansy (Viola tricolor), read-out: Visual Growth Reduction (%) 14 Days After Application VIOTR
[10] = CYPES: yellow nutsedge (Cyperus esculentus), read-out: Visual Growth Reduction (%) 14 Days After Application, CYPES
[11] = DIGSA: crabgrass (Digitaria sanguinalis), read-out: Visual Growth Reduction (%) 14 Days After Application, DIGSA
[12] = ECHCG: barnyardgrass (Echinochloa crus-galli), read-out: Visual Growth Reduction (%) 14 Days After Application, ECHCG
[13] = ORYSA: rice (Oryza sativa), read-out: Visual Growth Reduction (%) 14 Days After Application, ORYSA
[14] = SETFA: giant foxtail (Setaria faberi), read-out: Visual Growth Reduction (%) 14 Days After Application, SETFA
[15] = SORVU: grain sorghum (Sorghum vulgare), read-out: Visual Growth Reduction (%) 14 Days After Application, SORVU
[16] = TRZSS (wheat, Triticum aestivum), read-out: Visual Growth Reduction (%) 14 Days After Application, TRZSS
[17] = ZEAMX: maize, corn (Zea mays), read-out: Visual Growth Reduction (%) 14 Days After Application, ZEAMX
[18] = Triticum aestivum, TRZSS (wheat), read-out: Visual Growth Reduction (%) 14 Days After Application, TRZSS

| Structure (SMILES) | pest or weed control at 70 g/ha [1, 3] | pest or weed control at 140 g/ha [1, 3] | pest or weed control at 70 g/ha [1, 4] | pest or weed control at 140 g/ha [1, 4] | pest or weed control at 70 g/ha [1, 5] | pest or weed control at 140 g/ha [1, 5] | pest or weed control at 70 g/ha [1, 6] | pest or weed control at 140 g/ha [1, 6] | pest or weed control at 70 g/ha [1, 7] | pest or weed control at 140 g/ha [1, 7] | pest or weed control at 70 g/ha [1, 8] | pest or weed control at 140 g/ha [1, 8] | pest or weed control at 70 g/ha [1, 9] | pest or weed control at 140 g/ha [1, 9] | melting point | pest or weed control at 70 g/ha [2, 10] | pest or weed control at 140 g/ha [2, 10] | pest or weed control at 70 g/ha [2, 11] | pest or weed control at 140 g/ha [2, 11] | pest or weed control at 70 g/ha [2, 12] | other results |
| --- | --- | --- | --- | --- | --- | --- | --- | --- | --- | --- | --- | --- | --- | --- | --- | --- | --- | --- | --- | --- | --- |
| COC(=O)c1nc(-c2cc(F)c(C(F)F)cc2F)cc(N)c1Cl [Compound 205] | 95 to 100% | 95 to 100% | 95 to 100% | 95 to 100% | 60 to 74% | 85 to 94% | 95 to 100% | 95 to 100% | 95 to 100% | 95 to 100% | 85 to 94% | 95 to 100% | 45 to 59% | 60 to 74% | 141.8 to 145 °C | 85 to 94% | 95 to 100% | 30 to 44% | 45 to 59% | 85 to 94% | pest or weed control at 140 g/ha [2, 12]: 85 to 94%; pest or weed control at 70 g/ha [2, 13]: 0 to 29%; pest or weed control at 140 g/ha [2, 13]: 0 to 29%; pest or weed control at 70 g/ha [2, 14]: 45 to 59%; pest or weed control at 140 g/ha [2, 14]: 75 to 84%; pest or weed control at 70 g/ha [2, 15]: 60 to 74%; pest or weed control at 140 g/ha [2, 15]: 75 to 84%; pest or weed control at 70 g/ha [2, 16]: 0 to 29%; pest or weed control at 140 g/ha [2, 16]: 30 to 44%; pest or weed control at 70 g/ha [2, 17]: 30 to 44%; pest or weed control at 140 g/ha [2, 17]: 60 to 74% |
| C=Cc1c(N)nc(-c2ccc(F)c(F)c2F)nc1C(=O)O [Compound 191, 6-Amino-2-(2,3,4-trifluorophenyl)-5-vinylpyrimidine-4-carboxylic acid] | 60 to 74% | 95 to 100% | 95 to 100% | 95 to 100% | 95 to 100% | 95 to 100% | 95 to 100% | 95 to 100% | 95 to 100% | 95 to 100% | 95 to 100% | 95 to 100% | 45 to 59% | 45 to 59% | 154 to 157 °C | 0 to 29% | 60 to 74% | 60 to 74% | 75 to 84% | 85 to 94% | pest or weed control at 70 g/ha [2, 18]: 0 to 29%; pest or weed control at 140 g/ha [2, 18]: 30 to 44%; pest or weed control at 140 g/ha [2, 12]: 75 to 84%; pest or weed control at 70 g/ha [2, 13]: 0 to 29%; pest or weed control at 140 g/ha [2, 13]: 0 to 29%; pest or weed control at 70 g/ha [2, 14]: 75 to 84%; pest or weed control at 140 g/ha [2, 14]: 75 to 84%; pest or weed control at 70 g/ha [2, 15]: 45 to 59%; pest or weed control at 140 g/ha [2, 15]: 45 to 59%; pest or weed control at 70 g/ha [2, 17]: 45 to 59%; pest or weed control at 140 g/ha [2, 17]: 60 to 74% |
